Profile and Ki data for 8 compounds are collected here from US20190185518A9, “WARHEAD-CONTAINING PEPTIDOMIMETIC MACROCYCLES AS MODULATORS OF BFL-1” (AILERON Therapeutics, Inc., priority 2017, published 2019).

For experiment [1], the system named is Mcl-1, Bcl-xL, Bcl-2. Briefly: BCL-2 family selectivity profile. The experiment is classed as binding. From the text: The binding spectrum of stapled BIM BH3 peptides were tuned for BCL-2 family selectivity. […] ABT-199 is venetoclax, and † represents values reported in the literature.
The target of experiment [2] is Bcl-2 (Homo sapiens, UniProt P10415). Briefly: Ki determination for Bcl-2 (BCL-2 family binding spectrum). Conditions: TABLE 6; read-out: Bcl-2 Ki. A digest of the protocol:
(§1)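 Competitive fluorescence polarization: compounds (1 nM–1 mM) with 25 nM fluoresceinated peptidomimetic macrocycle and 50 nM protein in 140 mM NaCl, 50 mM Tris-HCl pH 7.4, 30 min at room temperature. Constants from nonlinear regression.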

Experiment [3] addresses Bcl-xL (Homo sapiens, UniProt Q07817). Briefly: Ki determination for Bcl-xL (BCL-2 family binding spectrum). To be noted: TABLE 6; read-out: Bcl-xL Ki. In a few lines:
as §1

Experiment [4] addresses Mcl-1 (Homo sapiens, UniProt Q07820). Briefly: Ki determination for Mcl-1 (BCL-2 family binding spectrum). Conditions: read-out: Mcl-1 Ki. A digest of the protocol: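 Competitive fluorescence polarization assay in which compounds displace a fluoresceinated peptidomimetic macrocycle tracer from Mcl-1. Affinity constants were obtained by nonlinear regression.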

pKi: −log10 of the molar value. Read-outs that look alike come from different tables or passages of the source. Positions of bridges follow the written chain, without caps; N, C: chain ends. Non-standard residues stand in square brackets, D forms with d. Residues, ends and D or L forms follow the SMILES beside them. R8 = C=CCCCCCC[C@@](C)(N)C(=O)O; S5 = C=CCCC[C@](C)(N)C(=O)O

Chain of Bcl-xL (Q07817 whole entry, species assumed): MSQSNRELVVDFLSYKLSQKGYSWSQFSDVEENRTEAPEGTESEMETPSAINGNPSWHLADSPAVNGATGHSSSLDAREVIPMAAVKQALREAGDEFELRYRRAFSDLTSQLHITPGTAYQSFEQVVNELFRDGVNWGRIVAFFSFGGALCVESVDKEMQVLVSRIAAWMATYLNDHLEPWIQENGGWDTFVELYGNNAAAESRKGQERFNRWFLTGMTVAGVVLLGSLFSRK
Chain of Mcl-1 (Q07820 whole entry, species assumed): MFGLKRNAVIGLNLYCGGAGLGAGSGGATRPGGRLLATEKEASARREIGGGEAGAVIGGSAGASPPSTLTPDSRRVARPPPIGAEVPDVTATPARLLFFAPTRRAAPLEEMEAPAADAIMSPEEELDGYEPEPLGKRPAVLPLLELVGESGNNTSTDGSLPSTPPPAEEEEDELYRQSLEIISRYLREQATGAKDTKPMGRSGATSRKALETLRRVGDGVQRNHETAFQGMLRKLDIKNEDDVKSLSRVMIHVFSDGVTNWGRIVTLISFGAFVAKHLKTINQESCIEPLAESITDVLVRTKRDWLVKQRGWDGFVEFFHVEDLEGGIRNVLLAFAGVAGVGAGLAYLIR
Chain of Bcl-2 (P10415 whole entry, species assumed): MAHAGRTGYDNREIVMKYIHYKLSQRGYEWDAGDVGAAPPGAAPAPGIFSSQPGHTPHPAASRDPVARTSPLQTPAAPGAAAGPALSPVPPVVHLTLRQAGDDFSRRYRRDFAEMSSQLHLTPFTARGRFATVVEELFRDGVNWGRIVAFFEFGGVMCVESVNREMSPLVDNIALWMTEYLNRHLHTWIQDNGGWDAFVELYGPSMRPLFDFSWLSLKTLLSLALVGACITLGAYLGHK

What is called pKi is −log10 of the Ki, conventionally taken in molar units. On to `CC[C@H](C)[C@H](NC(C)=O)C(=O)N[C@@H](Cc1c[nH]c2ccccc12)C(=O)N[C@H](C(=O)N[C@@H](C)C(=O)N[C@@H](CCC(N)=O)C(=O)N[C@@H](C)C(=O)N[C@@H](CC(C)C)C(=O)N[C@@H](CCCNC(=N)N)C(=O)N[C@]1(C)CCCCCCC=CCCC[C@@](C)(C(=O)N[C@@H](Cc2ccc(O)cc2)C(=O)N[C@@H](Cc2ccc(O)cc2)C(=O)N[C@@H](C)C(N)=O)NC(=O)[C@H](CC(N)=O)NC(=O)[C@H](Cc2ccccc2)NC(=O)[C@H](CCC(=O)O)NC(=O)[C@H](CC(=O)O)NC(=O)CNC(=O)[C@H]([C@@H](C)CC)NC1=O)[C@@H](C)CC` [Peptide #1] (Ac-IWIAQALR[R8]IGDEFN[S5]YYA-NH2; staple 9-16), for which the Profile entry in experiment [1] (TABLE 6) was “Pan-selective”. Also, the pKi is 8.49 in experiment [2], 8.85 in experiment [3] and 8.74 in experiment [4] (TABLE 6).

For the compound `CC[C@H](C)[C@H](NC(C)=O)C(=O)N[C@@H](Cc1c[nH]c2ccccc12)C(=O)N[C@H](C(=O)N[C@@H](C)C(=O)N[C@@H](CCC(N)=O)C(=O)N[C@@H](C)C(=O)N[C@@H](CC(C)C)C(=O)N[C@@H](CCCNC(=N)N)C(=O)N[C@]1(C)CCCCCCC=CCCC[C@@](C)(C(=O)N[C@@H](Cc2ccc(O)cc2)C(=O)N[C@@H](Cc2ccc(O)cc2)C(=O)N[C@@H](C)C(=O)N[C@@H](CCCNC(=N)N)C(=O)N[C@@H](CCCNC(=N)N)C(N)=O)NC(=O)[C@H](CC(N)=O)NC(=O)[C@H](Cc2ccccc2)NC(=O)[C@H](CCC(=O)O)NC(=O)[C@H](CC(=O)O)NC(=O)CNC(=O)[C@H]([C@@H](C)CC)NC1=O)[C@@H](C)CC` [Peptide #15] (Ac-IWIAQALR[R8]IGDEFN[S5]YYARR-NH2; staple 9-16), in experiment [1] (TABLE 8), the Profile entry is reported as “Pan-selective”. In addition, the pKi in experiment [4] (TABLE 8) is 7.97.

For `CC[C@H](C)[C@H](NC(C)=O)C(=O)N[C@@H](Cc1c[nH]c2ccccc12)C(=O)N[C@H](C(=O)N[C@@H](C)C(=O)N[C@@H](CCC(N)=O)C(=O)N[C@@H](C)C(=O)N[C@@H](CC(C)C)C(=O)N[C@@H](CCCNC(=N)N)C(=O)N[C@]1(C)CCCCCCC=CCCC[C@@](C)(C(=O)N[C@@H](Cc2ccc(O)cc2)C(=O)N[C@@H](Cc2ccc(O)cc2)C(=O)N[C@@H](C)C(N)=O)NC(=O)[C@H](CC(N)=O)NC(=O)[C@H](Cc2ccccc2)NC(=O)[C@H](CCC(N)=O)NC(=O)[C@H](CC(=O)O)NC(=O)CNC(=O)[C@H]([C@@H](C)CC)NC1=O)[C@@H](C)CC` [compound 2] (Ac-IWIAQALR[R8]IGDQFN[S5]YYA-NH2; staple 9-16), in experiment [1] (TABLE 6), the Profile result is reported as “Pan-selective”. Moreover, the values for the pKi in experiment [2], in experiment [3] and in experiment [4] (TABLE 6) were 7.17, 7.92 and 8.28, respectively.

With `CC[C@H](C)[C@H](NC(C)=O)C(=O)N[C@@H](Cc1c[nH]c2ccccc12)C(=O)N[C@H](C(=O)N[C@@H](C)C(=O)N[C@@H](C)C(=O)N[C@@H](C)C(=O)N[C@@H](CC(C)C)C(=O)N[C@@H](CCCNC(=N)N)C(=O)N[C@]1(C)CCCCCCC=CCCC[C@@](C)(C(=O)N[C@@H](Cc2ccc(O)cc2)C(=O)N[C@@H](Cc2ccc(O)cc2)C(=O)N[C@@H](C)C(N)=O)NC(=O)[C@H](CC(N)=O)NC(=O)[C@H](Cc2ccccc2)NC(=O)[C@H](CCC(=O)O)NC(=O)[C@H](CC(=O)O)NC(=O)CNC(=O)[C@H]([C@@H](C)CC)NC1=O)[C@@H](C)CC` [compound 3] (Ac-IWIAAALR[R8]IGDEFN[S5]YYA-NH2; staple 9-16), in experiment [1] (TABLE 6), the Profile result is “Pan-selective”. In addition, the pKi was 8.22 in experiment [2], 9.00 in experiment [3] and 9.00 in experiment [4] (TABLE 6).

`CC[C@H](C)[C@H](NC(C)=O)C(=O)N[C@@H](Cc1c[nH]c2ccccc12)C(=O)N[C@H](C(=O)N[C@@H](C)C(=O)N[C@@H](C)C(=O)N[C@@H](C)C(=O)N[C@@H](CC(C)C)C(=O)N[C@@H](CCCNC(=N)N)C(=O)N[C@]1(C)CCCCCCC=CCCC[C@@](C)(C(=O)N[C@@H](Cc2ccc(O)cc2)C(=O)N[C@@H](Cc2ccc(O)cc2)C(=O)N[C@@H](C)C(N)=O)NC(=O)[C@H](CC(N)=O)NC(=O)[C@H](Cc2ccccc2)NC(=O)[C@H](CCC(N)=O)NC(=O)[C@H](CC(=O)O)NC(=O)CNC(=O)[C@H]([C@@H](C)CC)NC1=O)[C@@H](C)CC` [compound 4] (Ac-IWIAAALR[R8]IGDQFN[S5]YYA-NH2; staple 9-16): the Profile result in experiment [1] (TABLE 6) is on record as “Pan-selective”. Moreover, the values for the pKi in experiment [2], in experiment [3] and in experiment [4] (TABLE 6) were 7.66, 8.40 and 8.22, respectively.

On to `CC[C@H](C)[C@H](NC(C)=O)C(=O)N[C@@H](Cc1c[nH]c2ccccc12)C(=O)N[C@H](C(=O)N[C@@H](C)C(=O)N[C@@H](CCC(N)=O)C(=O)N[C@@H](C)C(=O)N[C@@H](CC(C)C)C(=O)N[C@@H](CCCNC(=N)N)C(=O)N[C@]1(C)CCCCCCC=CCCC[C@@](C)(C(=O)N[C@@H](Cc2ccc(O)cc2)C(=O)N[C@@H](Cc2ccc(O)cc2)C(=O)N[C@@H](C)C(N)=O)NC(=O)[C@H](CC(N)=O)NC(=O)[C@H](C)NC(=O)[C@H](CCC(N)=O)NC(=O)[C@H](CC(=O)O)NC(=O)CNC(=O)[C@H]([C@@H](C)CC)NC1=O)[C@@H](C)CC` [compound 8] (Ac-IWIAQALR[R8]IGDQAN[S5]YYA-NH2; staple 9-16), for which the Profile result in experiment [1] (TABLE 6) is reported as “Mcl-1 selective”. Further, the pKi in experiment [4] (TABLE 6) is 8.85.

Regarding `CC[C@H](C)[C@H](NC(C)=O)C(=O)N[C@@H](Cc1c[nH]c2ccccc12)C(=O)N[C@H](C(=O)N[C@@H](C)C(=O)N[C@@H](CCC(N)=O)C(=O)N[C@@H](C)C(=O)N[C@@H](CC(C)C)C(=O)N[C@@H](CCCNC(=N)N)C(=O)N[C@]1(C)CCCCCCC=CCCC[C@@](C)(C(=O)N[C@@H](Cc2ccc(O)cc2)C(=O)N[C@@H](Cc2ccc(O)cc2)C(=O)N[C@@H](C)C(N)=O)NC(=O)[C@H](CC(N)=O)NC(=O)[C@H](Cc2ccccc2)NC(=O)[C@H](CCC(N)=O)NC(=O)[C@H](CC(=O)O)NC(=O)[C@H](C)NC(=O)[C@H]([C@@H](C)CC)NC1=O)[C@@H](C)CC` [compound 9] (Ac-IWIAQALR[R8]IADQFN[S5]YYA-NH2; staple 9-16), the Profile result in experiment [1] (TABLE 6) is “Bcl-xL/Bcl-2 selective”. Further, the pKi in experiment [2] is 7.59; in experiment [3], 8.11.

`CC[C@H](C)[C@H](NC(C)=O)C(=O)N[C@@H](Cc1c[nH]c2ccccc12)C(=O)N[C@H](C(=O)N[C@@H](C)C(=O)N[C@@H](CCC(N)=O)C(=O)N[C@@H](C)C(=O)N[C@@H](CC(C)C)C(=O)N[C@@H](C)C(=O)N[C@]1(C)CCCCCCC=CCCC[C@@](C)(C(=O)N[C@@H](Cc2ccc(O)cc2)C(=O)N[C@@H](Cc2ccc(O)cc2)C(=O)N[C@@H](C)C(N)=O)NC(=O)[C@H](CC(N)=O)NC(=O)[C@H](Cc2ccccc2)NC(=O)[C@H](C)NC(=O)[C@H](CC(=O)O)NC(=O)CNC(=O)[C@H]([C@@H](C)CC)NC1=O)[C@@H](C)CC` [compound 11] (Ac-IWIAQALA[R8]IGDAFN[S5]YYA-NH2; staple 9-16): the Profile result in experiment [1] (TABLE 6) is “negative control”. In addition, the pKi in experiment [3] is 6.41; in experiment [4] (TABLE 6), 7.13.
